Patent EP1935887A1, “Heterocyclic substituted carbonyl derivatives and their use as dopamine D3 receptor ligands” (Aventis Pharmaceuticals Inc., priority 2001, dated 2002)

What follows are compounds tested against T1, Cloned Human Dopamine D3 Receptors (Homo sapiens, UniProt P35462) (assay: [N-Methyl-3H]Spiroperidol binding to cloned human dopamine D3 receptors). Conditions: D3 Ki (nM).
T1 construct: expressed in transfected cells; membrane homogenate
T1 sequence (P35462 whole entry): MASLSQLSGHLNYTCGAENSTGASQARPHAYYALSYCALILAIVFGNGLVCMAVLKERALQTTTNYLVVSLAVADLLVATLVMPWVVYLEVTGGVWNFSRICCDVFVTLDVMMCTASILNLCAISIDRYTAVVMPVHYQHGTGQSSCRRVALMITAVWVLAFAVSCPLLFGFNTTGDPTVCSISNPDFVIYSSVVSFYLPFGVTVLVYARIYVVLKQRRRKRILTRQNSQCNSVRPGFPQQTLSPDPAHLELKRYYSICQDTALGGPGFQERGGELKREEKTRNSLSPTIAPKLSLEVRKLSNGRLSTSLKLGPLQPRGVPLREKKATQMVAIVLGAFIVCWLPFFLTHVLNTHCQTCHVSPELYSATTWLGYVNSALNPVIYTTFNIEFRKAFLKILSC
Description: [N-Methyl-^3H]Spiroperidol Binding to Cloned Human Dopamine D3 Receptors
This assay measures the in vitro activity of compounds on cloned human dopamine (D3) receptors and predicts the direct dopamine-blocking properties of putative neuropsychiatric agents at human dopamine D3 receptors.
The D3 gene was isolated from a human striatal cDNA library (Stratagene). The gene was sequenced and sub-cloned into the expression vector RC/RSV (Invitrogen). CHO (Chinese Hamster Ovary) cells were stably transfected with 10 µg of the D3/RSV plasmid using the DOTAP method from Boehringer Mannheim and 72 clones that were G418 resistant were isolated. Using mRNA and binding displacement data a single high expressing clone was identified. This clone was then grown in large batches for the purpose of developing a 96 well format assay.
• 1. One plate (10 cm) with approximately 2-3 million D3 cells per plate is incubated with 1 ml of Trypsin-EDTA at room temperature for -2 min or until cells have lifted off plates. Four ml of Ham's F12 + 10% Fetal Bovine Serum + 1% Penicillin/Streptomycin + G418 (400 µg/ml) medium are added to resuspend cells and 1 ml of this is added to each large plate (15 cm) containing 19 ml of the same medium as mentioned above. • 2. The 5 large plates are incubated at 37°C + 5% CO2 for - 3 days or until the cells are confluent. • 3. After these plates are confluent, they are split into 10 large plates. Medium is aspirated off, 2 ml of Trypsin-EDTA are added to each plate and plates are incubated at RT for 2 min or until cells have lifted off the plate. Eight ml of the F12 medium (same medium as #1 above) are added to each plate (10 ml total) to resuspend the cells and 5 ml are transferred to the 2 new plates containing 15 ml of the F12 media. • 4. The 10 large plates are incubated at 37°C + 5% CO2 for ∼ 2 days or until the cells are confluent. • 5. The 10 large plates are split into 60 large plates (using Trypsin-EDTA as #3 except 4 ml of F12 medium are added to resuspend cells and 1 ml is aliquoted to 6 new plates containing 19 ml of F12 medium each). • 6. Plates are incubated at 37°C + 5% CO2 for - 3 days or until cell are confluent. • 7. The 60 large plates are then split into 60 roller bottles (100-150 million cells/bottle). Medium is aspirated off , 2 ml of Trypsin-EDTA are added to each plate and incubated at RT for -2 minutes or until cells have lifted off plates. Eight ml of F12 medium are added to each plate to resuspend cells and the entire 10 ml are added to 1 roller bottle containing 90 ml of the F12 medium. • 8. The 60 roller bottles are immediately placed on their sides and transferred to the roller bottle incubator. They are incubated at 37°C + 5% CO2 for ~ 3-5 days. Cells are spun at 30-40% motor speed in the Forma incubator. • 9. Medium is poured off and cells are washed 2X in PBS. • 10. Cells are then scraped off in 20 ml of PBS and the bottles are rinsed again with 5 ml of PBS to remove any remaining cells. Cells are stored on ice before membrane prepration. • 11. The yield for 60 D3 roller bottles has varied from - 260-500 mg. Note: All tissue culture reagents are from Gibco-BRL.
The cells are harvested into 250 ml centrifuge tubes with 100 volumes of cold phosphate buffered saline (PBS) and spun down (1200xG for 10 min at 4°C). The medium is removed and 100 ml PBS are added to each centrifuge tube, cells are resuspened and spun down again. The PBS is removed and the final pellet is homogenized in an appropriate volume of 10% DMSO with a polytron on ice at a medium setting.
A 200 µl sample membrane homogenate is added to 200 µl of 1% SDS, vortexed and allowed to stand for 5 min. Aliquots (25, 50 and 100 µl) of this mixture are assayed in duplicate following the standard Bio-Rad DC protein assay protocol (kit catalog number 500-0112) and using reagent S. Absorbance readings are made at 750 nm (note: the most accurate protein OD readings are between 0.1-0.5 units). […]
Work on `CN1CCCC1CCNC(=O)[C@H]1C[C@@H]1CN1CCC(c2noc3ccsc23)CC1` (single isomer, unassigned) [compound 832514] yielded a Ki of 115 nM.
`O=C(NC1CCN(Cc2cccc(F)c2)CC1)[C@@H]1C[C@H]1CN1CCC(c2noc3ccsc23)CC1` [compound 832727] showed a Ki of 1.19 nM.
In the case of `Cn1nc(C2CCN(C[C@@H]3C[C@H]3C(=O)NCCCN3CCCCC3)CC2)c2cccc(C(F)(F)F)c21` [compound 833090], the Ki is reported as 41.8 nM.

Same assay, conditions: Table 2; unit inferred; read-out: d3Ki
For `O=C(CCCN1CCN(c2csc3cc(F)ccc23)CC1)Nc1cccc(Oc2ccccc2)c1` [compound 822148], the Ki was 41.4 nM.
For `CN(C(=O)[C@@H]1C[C@H]1CN1CCN(c2csc3cc(C(F)(F)F)ccc23)CC1)C1CCCCC1` [compound 826885], the Ki was 20.3 nM.
`CC1CCC(NC(=O)C2CC2CN2CCCN(c3cc(C(F)(F)F)nc(C(C)(C)C)n3)CC2)CC1` (centres unmarked) [compound 817261] showed a Ki of 9.23 nM.
Work on `C[C@]1(O)CC[C@@H](NC(=O)[C@@H]2C[C@H]2CN2CCN(c3csc4cc(C(F)(F)F)ccc34)CC2)CC1` [compound 817051] yielded a Ki of 3.47 nM.
For `CCC1CCC(NC(=O)C2CC2CN2CCN(c3cc(Cl)ccc3OC)CC2)CC1` (centres unmarked) [compound 817042], the Ki was 0.615 nM.
In the case of `CC[C@H]1CC[C@H](NC(=O)[C@@H]2C[C@H]2CN2CCN(c3ccccc3C#N)CC2)CC1` [compound 817044], the Ki is reported as 1.1 nM.
Compound `CC1CCCC(NC(=O)[C@@H]2C[C@H]2CN2CCN(c3csc4cc(C(F)(F)F)ccc34)CC2)C1` (some centres unmarked) [compound 826884] has a Ki of 15.2 nM.

Same assay, conditions: Table 2 part the 10th table; read-out: d3Ki
`O=C([C@@H]1C[C@H]1CN1CCN(c2csc3cc(C(F)(F)F)ccc23)CC1)N1CCC(O)(c2ccc(Cl)cc2)CC1` [compound 826900] gave a Ki of 181 nM.
For `O=C([C@@H]1C[C@H]1CN1CCN(c2csc3cc(F)ccc23)CC1)N1CCC(Cc2ccccc2)CC1` [compound 826673], the Ki was 7.9 nM.
Compound `CC1CCN(C(=O)[C@@H]2C[C@H]2CN2CCN(c3csc4cc(C(F)(F)F)ccc34)CC2)CC1` [compound 826906] has a Ki of 39.5 nM.
In the case of `CC1CCCC(C)N1C(=O)[C@@H]1C[C@H]1CN1CCN(c2csc3cc(F)ccc23)CC1` (some centres unmarked) [compound 826675], the Ki is reported as 8 nM.
Work on `CCOC(=O)C1CCCN(C(=O)[C@@H]2C[C@H]2CN2CCN(c3csc4cc(C(F)(F)F)ccc34)CC2)C1` (some centres unmarked) [compound 826909] yielded a Ki of 28.9 nM.
For `Cc1cccc(C)c1NC[C@@H]1CCCN1C(=O)[C@@H]1C[C@H]1CN1CCN(c2csc3cc(C(F)(F)F)ccc23)CC1` [compound 826919], the Ki was 329 nM.
In the case of `CC1(C)CCCN(C(=O)CCCN2CCCN(c3csc4cc(F)ccc34)CC2)C1` [compound 826837], the Ki is reported as 8.8 nM.

Same assay, conditions: read-out: D3 Ki
`CCC1CCC(NC(=O)C2CC2CN2CCCN(c3ccc4c(C#N)n[nH]c4n3)CC2)CC1` (centres unmarked) [compound 830122] was tested, and the Ki was 67.6 nM.
In the case of `C[C@H]1CC[C@H](NC(=O)[C@@H]2C[C@H]2CN2CCC(c3csc4cc(C(F)(F)F)ccc34)CC2)CC1` [compound 834016], the Ki is reported as 1.63 nM.
`COc1ccc2c(c1)c(N1CCN(C[C@@H]3C[C@H]3C(=O)NC[C@H]3CCN(C(=O)OC(C)(C)C)C3)CC1)nn2C` [compound 833630] showed a Ki of 52.1 nM.
`Cn1nc(N2CCN(C[C@@H]3C[C@H]3C(=O)NCCCN3CCOCC3)CC2)c2sccc21` [A002202402] gave a Ki of 47.3 nM.
`O=C(NC1CCNCC1)[C@@H]1C[C@H]1CN1CCN(c2csc3cc(C(F)(F)F)ccc23)CC1` [compound 832502] was tested, and the Ki was 2.67 nM.
Compound `CN1CCCC1CCNC(=O)[C@@H]1C[C@H]1CN1CCC(c2noc3ccsc23)CC1` (mixture of isomers) [compound 831936] has a Ki of 34.7 nM.
Compound `C[C@H]1CC[C@H](NC(=O)[C@@H]2C[C@H]2CN2CCC(c3csc4c(C(F)(F)F)cccc34)CC2)CC1` [compound 833690, 2R-[4-(7-Trifluoromethyl-benzo[b]thiophen-3-yl)-piperidin-1-ylmethyl]-1R-cyclopropanecarboxylic acid (trans-4-methyl-cyclohexyl)-amide] has a Ki of 7.97 nM.

Same assay, conditions: read-out: d3Ki
With `CN(C(=O)[C@@H]1C[C@H]1CN1CCCN(c2csc3cc(F)ccc23)CC1)C1CCCCC1` [compound 826868] the Ki was 3.49 nM.
Compound `CC1CCCC(NC(=O)[C@@H]2C[C@H]2CN2CCCN(c3csc4cc(F)ccc34)CC2)C1` (some centres unmarked) [compound 826867] has a Ki of 1.89 nM.
